Data set [1] deals with Coagulase Negative Staphylococci MR (methicillin resistant). The data set can be described thus: MIC by agar-dilution, in-vitro antibacterial test. In kind it is cell-based. The conditions noted are these: type MR (methicillin resistant), 10^4 CFU/spot, 37° C., 24 hours. The protocol: (§1) The following results were obtained on a standard in-vitro test system. The activity is described in terms of the minimum inhibitory concentration (MIC) determined by the agar-dilution technique with an inoculum size of 10^4 CFU/spot.
(§2) Staphylococci were tested on agar, using an inoculum of 10^4 CFU/spot and an incubation temperature of 37° C. for 24 hours—standard test conditions for the expression of methicillin resistance.

For data set [2], the system named is Coagulase Negative Staphylococci MS (methicillin sensitive). The data set can be described thus: MIC by agar-dilution, in-vitro antibacterial test. It counts as cell-based. The note with it: type MS (methicillin sensitive), 10^4 CFU/spot, 37° C., 24 hours. The protocol: as §1, §2
The subject of data set [3] is Staphylococcus aureus MRQR (methicillin resistant quinoione resistant). The data set can be described thus: MIC by agar-dilution, in-vitro antibacterial test. In kind it is cell-based. The note with it: type MRQR, 10^4 CFU/spot, 37° C., 24 hours. The protocol: as §1, §2
Data set [4] concerns Staphylococcus aureus Novb. Res. (Novobiocin resistant). The data set can be described thus: MIC by agar-dilution, in-vitro antibacterial test. In kind it is cell-based. The note with it: type Novb. Res. (Novobiocin resistant), 10^4 CFU/spot, 37° C., 24 hours. The procedure: as §1, §2
The subject of data set [5] is Staphylococcus aureus Oxford. The data set can be described thus: MIC by agar-dilution, in-vitro antibacterial test. It counts as cell-based. The note with it: type Oxford, 10^4 CFU/spot, 37° C., 24 hours. The protocol: as §1, §2
The next data set concerns Enterococcus faecalis. The data set can be described thus: MIC by agar-dilution, in-vitro antibacterial test. In kind it is cell-based. The note with it: agar with 5% defibrinated horse blood, 10^4 CFU/spot, 37° C., 5% carbon dioxide, 48 hours. The procedure:
(§3) The following results were obtained on a standard in-vitro test system. The activity is described in terms of the minimum inhibitory concentration (MIC) determined by the agar-dilution technique with an inoculum size of 10^4 CFU/spot. Streptococci and enterococci were tested on agar supplemented with 5% defibrinated horse blood, an inoculum of 10^4 CFU/spot and an incubation temperature of 37° C. in an atmosphere of 5% carbon dioxide for 48 hours—blood is required for the growth of some of the test organisms.

For data set [6], the system named is Streptococcus pyogenes C203. The data set can be described thus: MIC by agar-dilution, in-vitro antibacterial test. In kind it is cell-based. The note with it: agar with 5% defibrinated horse blood, 10^4 CFU/spot, 37° C., 5% carbon dioxide, 48 hours. The procedure:
as §3

The test system of another data set is Bacillus subtilis. The data set can be described thus: MIC by agar-dilution, in-vitro antibacterial test. It counts as cell-based. The conditions noted are these: 10^4 CFU/spot.
Excerpt: as §1

Converted amounts (≈) assume the structure as drawn.

In general, melting point refers to the temperature of the solid-liquid transition. Usually MIC stands for the least concentration at which growth counts as inhibited.

Regarding `CC(=O)NC[C@H]1CN(c2ccc(C(=O)c3ccc4ccc(C)cn34)cc2)C(=O)O1` [Example 2, N-([(5S)-N-(4-[6-methylindolizin-3-ylcarbonyl]phenyl)-2-oxooxazolidin-5-yl]methyl)acetamide], the melting point lay within 237 to 239 °C. `CC(=O)NC[C@H]1CN(c2ccc(C(=O)c3ccc4cnc(C)cn34)cc2)C(=O)O1` [Example 4, N-([(5S)-N-(4-[3-methylpyrrolo[1,2-a]pyrazin-6-ylcarbonyl]phenyl)-2-oxooxazolidin-5-yl]methyl)acetamide]: the melting point lay in the range of 248 to 250 °C. Still for that read-out and setting: to `CC(=O)NC[C@H]1CN(c2ccc(C(=O)c3cnc4ccccn34)cc2)C(=O)O1` [Example 5, N-([(5S)-N-(4-[imidazo[1,2-a]pyridin-3-ylcarbonyl]phenyl)-2-oxooxazolidin-5-yl]methyl)acetamide] belongs 218 to 220 °C; to `CC(=O)NC[C@H]1CN(c2ccc(C(=O)c3cnc4ncccn34)cc2)C(=O)O1` [Example 6, N-([(5S)-N-(4-[imidazo[1,2-a]pyrimidin-3-ylcarbonyl]phenyl)-2-oxooxazolidin-5-yl]methyl)acetamide], 257 to 260 °C. The compound `CC(=O)NC[C@H]1CN(c2ccc(C(=O)c3cnc4nc(C)cc(C)n34)cc2)C(=O)O1` [Example 7, N-([(5S)-N-(4-[5,7-dimethylimidazo[1,2-a]pyrimidin-3-ylcarbonyl]phenyl)-2-oxooxazolidin-5-yl]methyl)acetamide] yielded a melting point of 253 to 254 °C.

`CC(=O)NC[C@H]1CN(c2ccc(C(=O)c3cnc4ccc(Br)cn34)cc2)C(=O)O1` [Example 8, N-([(5S)-N-(4-[6-bromoimidazo[1,2-a]pyridin-3-ylcarbonyl]phenyl)-2-oxooxazolidin-5-yl]methyl)acetamide] displayed a melting point of 230 to 232 °C. Same read-out and setting: to `CC(=O)NC[C@H]1CN(c2ccc(C(=O)c3cnc4c5ccccc5ccn34)cc2)C(=O)O1` [Example 9, N-([(5S)-N-(4-[imidazo[2,1-a]isoquinol-3-ylcarbonyl]phenyl)-2-oxooxazolidin-5-yl]methyl)acetamide] belongs 239 to 240 °C. As to `CC(=O)NC[C@H]1CN(c2ccc(C(=O)c3cnc4sccn34)cc2)C(=O)O1` [Example 10, N-([(5S)-N-(4[imidazo[2,1-b]thiazol-5-ylcarbonyl]phenyl)-2-oxooxazolidin-5-yl]methyl)acetamide], the MIC amounted to 0.13 µg/mL (≈ 0.338 µM) in data set [1]; 0.06 µg/mL (≈ 0.156 µM) in data set [2]; 0.5 µg/mL (≈ 1.3 µM) in data set [3]; 0.13 µg/mL (≈ 0.338 µM) in data set [4]; 0.13 µg/mL (≈ 0.338 µM) in data set [5]; 0.25 µg/mL (≈ 0.65 µM) against Enterococcus faecalis. Moreover, the results for the MIC (in data set [6]; against Bacillus subtilis) were 0.03 µg/mL (≈ 0.078 µM) and 0.125 µg/mL (≈ 0.325 µM), respectively. For the compound `CC(=O)NC[C@H]1CN(c2ccc(C(=O)c3cnc4c(Cl)cc(Cl)cn34)cc2)C(=O)O1` [Example 11, N-([(5S)-N-(4-[6,8-dichloroimidazo[1,2-a]pyridin-3-ylcarbonyl]phenyl)-2-oxooxazolidin-5-yl]methyl)acetamide], the melting point was 228 to 229 °C. The same measure, in the same setting: the result for `CC(=O)NC[C@H]1CN(c2ccc(C(=O)c3cc(C#N)c4ccccn34)cc2)C(=O)O1` [Example 12, N-([(5S)-N-(4-[1-cyanoindolizin-3-ylcarbonyl]phenyl)-2oxooxazolidin-5-yl]methyl)acetamide] reads 255 to 257 °C. In turn, `CC(=O)NC[C@H]1CN(c2ccc(C(=O)c3cnc4cc(C)ccn34)cc2)C(=O)O1` [Example 13, N-([(5S)-N-(4-[7-methylimidazo[1,2-a]pyridin-3-ylcarbonyl]phenyl)-2-oxooxazolidin-5-yl]methyl)acetamide] returned a melting point of 254 to 256 °C.

On to `CC(=O)NC[C@H]1CN(c2ccc(C(=O)c3cnc4ccc(Cl)cn34)cc2)C(=O)O1` [Example 14, N-([(5S)-N-(4-[6-chloroimidazo[1,2-a]pyridin-3-ylcarbonyl]phenyl)-2-oxooxazolidin-5-yl]methyl)acetamide], for which the melting point was in the range of 234 to 235 °C.

As to `CC(=O)NC[C@H]1CN(c2ccc(C(=O)c3cnc4ccc([N+](=O)[O-])cn34)cc2)C(=O)O1` [Example 15, N-([(5S)-N-(4-[6-nitroimidazo[1,2-a]pyridin-3-ylcarbonyl]phenyl)-2-oxooxazolidin-5-yl]methyl)acetamide], the melting point lay within 223 to 225 °C. Turning to `CC(=O)NC[C@H]1CN(c2ccc(C(=O)c3cnc4c([N+](=O)[O-])cccn34)cc2)C(=O)O1` [Example 16, N-([(5S)-N-(4-[8-nitroimidazo[1,2-a]pyridin-3-ylcarbonyl]phenyl)-2-oxooxazolidin-5-yl]methyl)acetamide], the melting point fell in the range of 229 to 230 °C. On the same count and under the same terms, to `CC(=O)NC[C@H]1CN(c2ccc(C(=O)c3cnc4c(Br)cc(C)cn34)cc2)C(=O)O1` [Example 19, N-([(5S)-N-(4-[8-bromo-6-methylimidazo[1,2-a]pyridin-3-ylcarbonyl]phenyl)2-oxooxazolidin-5-yl]methyl)acetamide] belongs 221 to 223 °C; to `CC(=O)NC[C@H]1CN(c2ccc(C(=O)c3cnc4c(OCc5ccccc5)cccn34)cc2)C(=O)O1` [Example 20, N-([(5S)-N-(4-[8-benzyloxyimidazo[1,2-a]pyridin-3-ylcarbonyl]phenyl)-2-oxooxazolidin-5-yl]methyl)acetamide], 193 to 195 °C.

The compound `CC(=O)NC[C@H]1CN(c2ccc(C(=O)c3cnc4ccccn34)c(F)c2)C(=O)O1` [Example 22, N-([(5S)-N-(4[imidazo[1,2-a]pyridin-3-ylcarbonyl]{3-fluorophenyl})-2-oxooxazolidin-5-yl]methyl)acetamide] came in with a melting point of 196 to 198 °C. The same measure, in the same setting: to `COC(=O)c1cccn2c(C(=O)c3ccc(N4C[C@H](CNC(C)=O)OC4=O)cc3)cnc12` [Example 23, N-([(5S)-N-(4-[8-methoxycarbonylimidazo[1,2-a]pyridin-3-ylcarbonyl]phenyl)-2-oxooxazolidin-5-yl]methyl)acetamide] belongs 202 to 204 °C; to `COC(=O)c1ccc2ncc(C(=O)c3ccc(N4C[C@H](CNC(C)=O)OC4=O)cc3)n2c1` [Example 24, N-([(5S)-N-(4-[6-methoxycarbonylimidazo[1,2-a]pyridin-3-ylcarbonyl]phenyl)-2-oxooxazolidin-5-yl]methyl)acetamide], 231 to 233 °C; to `CC(=O)NC[C@H]1CN(c2ccc(C(=O)c3cnc4cc(-c5ccccc5)ccn34)cc2)C(=O)O1` [Example 25, N-([(5S)-N-(4-[7-phenylimidazo[1,2-a]pyridin-3-ylcarbonyl]phenyl)-2-oxooxazolidin-5-yl]methyl)acetamide], 256 to 258 °C.

`CC(=O)NC[C@H]1CN(c2ccc(C(=O)c3cnc4c(O)cccn34)cc2)C(=O)O1` [Example 26, N-([(5S)-N-(4-[8-hydroxyimidazo[1,2-a]pyridin-3-ylcarbonyl]phenyl)-2-oxooxazolidin-5-yl]methyl)acetamide]: the melting point is 253 to 255 °C (dec.). For `CC(=O)NC[C@H]1CN(c2ccc(C(=O)c3cnc4ccc(F)cn34)cc2)C(=O)O1` [Example 27, N-([(5S)-N-(4-[6-fluoroimidazo[1,2-a]pyridin-3-ylcarbonyl]phenyl)-2-oxooxazolidin-5-yl]methyl)acetamide], the melting point was in the range of 224 to 226 °C. As for `CC(=O)NC[C@H]1CN(c2ccc(C(=O)c3cnc4cnc(Br)cn34)cc2)C(=O)O1` [Example 43, N-([(5S)-N-(4-[6-bromoimidazo[1,2-a]pyrazin-3-ylcarbonyl]phenyl)-2-oxooxazolidin-5-yl]methyl)acetamide], the melting point fell in the range of 216 to 220 °C. Consider `CC(=O)NC[C@H]1CN(c2ccc(C(=O)c3cnc4ccc(Cl)nn34)cc2)C(=O)O1` [Example 44, N-([(5S)-N-(4-[6-chloroimidazo[1,2-b]pyridazin-3-ylcarbonyl]phenyl)-2-oxooxazolidin-5-yl]methyl)acetamide], for which the melting point lay within 194 to 196 °C. `CC(=O)NC[C@H]1CN(c2ccc(C(=O)c3cnc4cnccn34)cc2)C(=O)O1` [Example 45, N-([(5S)-N-(4-[imidazo[1,2-a]pyrazin-3-ylcarbonyl]phenyl)-2-oxooxazolidin-5-yl]methyl)acetamide] showed a melting point of 254 to 256 °C.

`CC(=O)NC[C@H]1CN(c2ccc(C(=O)c3ccc[nH]3)cc2)C(=O)O1` [Example 47, N-([(5S)-N-(4-[pyrrol-2-ylcarbonyl]phenyl)-2-oxooxazolidin-5-yl]methyl)acetamide] had a melting point of 202 to 205 °C.

The values above are taken from patent US6362191B1, “Aminometyl oxooxazolidinyl benzene derivatives” (Zeneca Ltd., priority 1997, dated 2002).
